Laboratory results taken from patent US9448244B2, “Compound, and method for measuring iron concentration by using novel compound as chelate color former” (WAKO PURE CHEMICAL INDUSTRIES, LTD., priority 2012, dated 2016).
Entries after “also recorded” stand apart in the source; their conditions may differ.

What was measured:
[1] = Absorbance measurement of iron chelate color development, first reagent solution pH 8.0 (Example 3 / Comparative Example 1); assay type: physicochemical; conditions: aqueous iron solution 200 μg/dL; R-1 tricine pH 8.0, R-2 tricine pH 8.0; color former 0.23 mM; 37° C.
Method: (§1) [Preparation of Reagent Solution]
(§2) (R-1) First Reagent Solution:
A 100 mM tricine buffer solution (pH 8.0) containing 0.5% (w/v) polyvinylpyrrolidone (K-90) (produced by Wako Pure Chemical Industries, Ltd.) was used as the first reagent solution.
(§3) (R-2) Second Reagent Solution:
A 100 mM tricine buffer solution (pH 8.0) containing 1 mM 4S-SPF synthesized in Example 1 or 1 mM 2S-4CPF synthesized in Example 2 was used as the second reagent solution.
Aqueous ferrous ammonium sulfate solution (containing 200 μg/dL iron) was prepared and used as a sample.
(§4) [Measurement of Absorbance]
For the above-described sample, the measurement of absorbance was carried out using the reagent solution described above, and using JEOL BM6050 automatic analyzer (manufactured by JEOL Co., Ltd.) by the following measurement conditions. In addition, when the measurement of reagent blank, measurement was carried out in the same manner using physiological saline instead of the sample.
Analysis method/Reaction time: [EPA] [10]
Measurement point: [44], [47]-[95], [98].
Wavelength (secondary/dominant): [694] [596]
Sample volume: 8 μL (2 times dilution at measurement)
Measurement temperature: 37° C.
It should be noted that the concentration of 4S-SPF or 2S-4CPF at the time of measurement was 0.23 mM.
A 100 mM tricine buffer solution (pH 8.0) containing 0.5% (w/v) polyvinylpyrrolidone (K-90) was used as the first reagent solution.
A 100 mM tricine buffer solution (pH 8.0) containing 1 mM CPF was used as the second reagent solution. The CPF was synthesized according to the method described in the Mitsuru Hoshino et al., Yakugaku Zassi, 2011, vol. 131, No. 7, p. 1095-1101 (Non-Patent Literature 1), and used.
Aqueous ferrous ammonium sulfate solution (containing 200 μg/dL iron) prepared and used as a sample.
For the above-described sample, the measurement of absorbance was carried out using the reagent solution described above and using JEOL BM6050 automatic analyzer (manufactured by JEOL Co., Ltd.) by the same measurement conditions as performed in Example 3. […]

[2] = Absorbance measurement of iron chelate color development, first reagent solution pH 3.2 (Example 4 / Comparative Example 2); assay type: physicochemical; conditions: aqueous iron solution 200 μg/dL; R-1 glycine pH 3.2 (condition of serum iron measurement), R-2 tricine pH 9.0; color former 0.23 mM
Method: as §1, §2
A 10 mM glycine buffer solution (pH 3.2) containing 0.5% (w/v) polyvinylpyrrolidone (K-90) (produced by Wako Pure Chemical Industries, Ltd.) was used as the first reagent solution.
as §3
A 100 mM tricine buffer solution (pH 9.0) containing 1 mM 4S-SPF which was synthesized in Example 1 or 1 mM 2S-4CPF which was synthesized in Example 2 was used as the second reagent solution.
The sample used was same as used in Example 3.
as §4
For the above-described sample, the measurement of absorbance was carried out using the reagent solution described above and using JEOL BM6050 automatic analyzer (manufactured by JEOL Co., Ltd.) by the same measurement conditions as performed in Example 3.
It should be noted that, the concentration of 4S-SPF or 2S-4CPF at the time of measurement was 0.23 mM.
A 10 mM glycine buffer solution (pH 3.2) containing 0.5% (w/v) polyvinylpyrrolidone (K-90) was used as the first reagent solution.
A 100 mM tricine buffer solution (pH 9.0) containing 1 mM CPF was used as the second reagent solution. CPF was synthesized according to the method described in the Mitsuru Hoshino et al., Yakugaku Zassi, 2011, vol. 131, No. 7, p. 1095-1101 (Non-Patent Literature 1), and used.
The sample used was the same as used in Example 4.
For the above-described sample, the measurement of absorbance was carried out using the reagent solution described above and using JEOL BM6050 automatic analyzer (manufactured by JEOL Co., Ltd.) by the same measurement conditions as performed in Example 4.
It should be noted that, the concentration of the CPF at the time of measurement was 0.23

Row | Structure (SMILES) | color fading after color development [1] | color fading after color development [2]
1 | O=C(O)c1ccc(-c2c3cc(O)c(=O)cc-3oc3cc(O)c(O)cc23)c(S(=O)(=O)O)c1 [2S-4CPF, 9-(4-carboxy-2-sulfophenyl)-2,3,7-trihydroxy-6-fluorone] | color fading was not confirmed | fading after color development was not observed
2 | O=c1cc2oc3cc(O)c(O)cc3c(-c3ccc(S(=O)(=O)O)cc3S(=O)(=O)O)c-2cc1O [4S-SPF, 9-(2,4-disulfophenyl)-2,3,7-trihydroxy-6-fluorone] | color fading was not confirmed | fading after color development was not observed
3 | O=C(O)c1ccccc1-c1c2cc(O)c(=O)cc-2oc2cc(O)c(O)cc12 [CPF, 9-(2-carboxyphenyl)-2,3,7-trihydroxy-6-fluorone, reference compound] | color fading after color development was observed | color fading after color development was observed; also recorded: fading after color development was remarkable
